Converted amounts (≈) assume the structure as drawn. The source made the active and inactive calls. The calls are words filed in the database; no cut-off is given here.
Experiments:
Enterococcus faecium = experiment: Antibacterial activity against Vancomycin-resistant Enterococcus faecium ATCC 51559 after 24 hrs; type: functional; settings: ATCC 51559, 24 h
Staphylococcus aureus [1] = experiment: Antibacterial activity against Staphylococcus aureus KCTC 1621 assessed as cytoplasmic membrane depolarization at 2 times MIC by disC3-5 dye based fluorescence assay; type: functional, organism-based
Staphylococcus aureus [2] = experiment: Antibacterial activity against Staphylococcus aureus KCTC 1621 assessed as cell membrane disruption at 2 times MIC within 4 mins by Sytox Green dye based fluorescence spectrophotometer assay; type: functional, organism-based

`CC[C@H](C)[C@H](NC(=O)CN)C(=O)NCC(=O)N[C@@H](C)C(=O)N[C@H](C(=O)N[C@@H](CC(C)C)C(=O)N[C@@H](CCCCN)C(=O)N[C@H](C(=O)N[C@@H](CC(C)C)C(=O)N[C@H](C(=O)N[C@H](C(=O)NCC(=O)N[C@@H](CC(C)C)C(=O)N1CCC[C@H]1C(=O)N[C@@H](C)C(=O)N[C@@H](CC(C)C)C(=O)N[C@H](C(=O)N[C@@H](CO)C(=O)N[C@@H](Cc1c[nH]c2ccccc12)C(=O)N[C@H](C(=O)N[C@@H](CCCCN)C(=O)N[C@@H](CCCNC(=N)N)C(=O)N[C@@H](CCCCN)C(=O)N[C@@H](CCCNC(=N)N)C(=O)N[C@@H](CCC(N)=O)C(=O)N[C@@H](CCC(N)=O)C(N)=O)[C@@H](C)CC)[C@@H](C)CC)[C@@H](C)O)[C@@H](C)O)C(C)C)C(C)C` [MELITTIN] was tested, and the MIC (Enterococcus faecium) was 16 µM (≈ 45.5 µg/mL), the Activity (Staphylococcus aureus [1]) was “Active” and the Activity (Staphylococcus aureus [2]) was “Active”.

Reference: ChEMBL document CHEMBL4138105, “LL-37-derived short antimicrobial peptide KR-12-a5 and its d-amino acid substituted analogs with cell selectivity, anti-biofilm activity, synergistic effect with conventional antibiotics, and anti-inflammatory activity” (Eur J Med Chem, 2017)
